Data: patent US20240158446A1, “CYCLIC COMPOUND HAVING SELECTIVE INHIBITORY ACTION ON KRAS OVER HRAS AND NRAS” (CHUGAI SEIYAKU KABUSHIKI KAISHA, priority 2021, published 2024)
Read-outs that look alike come from different tables or passages of the source. *1 amine or outer side, *2 acyl side, *3 side chain or, on linkers, in order; H or OH if unused. Where a SMILES comes first, the peptide text is derived from it. Bridges are numbered along the chain shown (N, C = ends). [ ]: non-standard residue; d: D form. The star is where a group is joined. hPhe(3,5-F2-4-CF3) = N[C@@H](CCc1cc(F)c(C(F)(F)F)c(F)c1)C(=O)O; hPhe(3-Cl-4-CF3) = N[C@@H](CCc1ccc(C(F)(F)F)c(Cl)c1)C(=O)O; NPrPhe(4-CF3) = CCCN[C@@H](Cc1ccc(C(F)(F)F)cc1)C(=O)O; X13 = O=C([C@@H](N[*:1])C1CC(F)(F)C1)[*:2]; NMeGly(cPent) = CN[C@H](C(=O)O)C1CCCC1; X8 = C[C@@](N[*:1])(C(=O)[*:2])C1CC1; Hyp = O=C(O)[C@@H]1C[C@@H](O)CN1; NMeD = CN[C@@H](CC(=O)O)C(=O)O; NMeL = CN[C@@H](CC(C)C)C(=O)O; Morpholide = C1CN(*)CCO1; Ac5c = NC1(C(=O)O)CCCC1; Aze = O=C(O)[C@@H]1CCN1; Ac4c = NC1(C(=O)O)CCC1; Sar = CNCC(=O)O

Legend:
[1] = target: GDP-bound HRAS wild-type protein (Homo sapiens, UniProt P01112); experiment: Binding to HRAS by surface plasmon resonance (SPR), Single Cycle Kinetics; conditions: for HRAS/KRAS (ratio of KD value with respect to HRAS to KD value with respect to KRAS) / HRAS/KRAS (ratio of KD value for HRAS to KD value for KRAS): SPR, GDP-bound HRAS wild-type protein vs GDP-bound KRAS wild-type protein
GDP-bound HRAS wild-type protein, sequence (P01112 whole entry): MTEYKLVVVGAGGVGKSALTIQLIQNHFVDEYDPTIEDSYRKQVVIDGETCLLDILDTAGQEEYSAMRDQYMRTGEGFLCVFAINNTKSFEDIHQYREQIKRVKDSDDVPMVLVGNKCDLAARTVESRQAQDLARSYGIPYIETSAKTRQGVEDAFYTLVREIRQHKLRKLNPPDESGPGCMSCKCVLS

[2] = target: GDP-bound NRAS wild-type protein (Homo sapiens, UniProt P01111); experiment: Binding to NRAS by surface plasmon resonance (SPR), Single Cycle Kinetics; conditions: for NRAS/KRAS (ratio of KD value with respect to NRAS to KD value with respect to KRAS) / NRAS/KRAS (ratio of KD value for NRAS to KD value for KRAS): SPR, GDP-bound NRAS wild-type protein vs GDP-bound KRAS wild-type protein
GDP-bound NRAS wild-type protein, sequence (P01111 whole entry): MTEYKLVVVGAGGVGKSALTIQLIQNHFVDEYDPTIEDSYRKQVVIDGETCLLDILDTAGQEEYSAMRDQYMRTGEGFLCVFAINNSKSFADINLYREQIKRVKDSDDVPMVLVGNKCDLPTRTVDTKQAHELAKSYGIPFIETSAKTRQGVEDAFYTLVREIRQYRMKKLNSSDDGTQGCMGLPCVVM

[3] = target: GDP-bound KRAS wild-type protein (Homo sapiens, UniProt P01116); experiment: Binding to KRAS by surface plasmon resonance (SPR), Single Cycle Kinetics; conditions: GDP-bound KRAS wild-type protein, read-out: KRAS KD
GDP-bound KRAS wild-type protein, sequence (P01116 whole entry): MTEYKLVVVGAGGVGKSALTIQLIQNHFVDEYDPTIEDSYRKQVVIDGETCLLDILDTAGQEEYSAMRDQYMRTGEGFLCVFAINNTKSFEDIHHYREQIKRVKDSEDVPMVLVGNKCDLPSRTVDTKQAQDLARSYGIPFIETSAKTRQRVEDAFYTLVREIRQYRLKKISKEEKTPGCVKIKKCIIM

[4] = SPR Single Cycle Kinetics, 1:1 binding model

| Structure (SMILES) | HRAS/KRAS (ratio of KD value with respect to HRAS to KD value with respect to KRAS) [1] | NRAS/KRAS (ratio of KD value with respect to NRAS to KD value with respect to KRAS) [2] | Kd [3, 4] [pM] | HRAS/KRAS (ratio of KD value for HRAS to KD value for KRAS) [1] | NRAS/KRAS (ratio of KD value for NRAS to KD value for KRAS) [2] | Kd ([3]; SPR, Single Cycle Kinetics) [pM] | HRAS/KRAS (ratio of KD value with respect to GDP-bound HRAS wild-type protein to KD value with respect to KRAS) ([1]; SPR KD ratio HRAS/KRAS, class symbols) | NRAS/KRAS (ratio of KD value with respect to GDP-bound NRAS wild-type protein to KD value with respect to KRAS) ([2]; SPR KD ratio NRAS/KRAS, class symbols) |
| --- | --- | --- | --- | --- | --- | --- | --- | --- |
| CCO[C@@H]1C[C@H]2C(=O)NC3(CCC3)C(=O)N(C)[C@@H](C3CCCC3)C(=O)N(CC)[C@H](C(=O)N(C)C)CC(=O)N(C)[C@@H](CC)C(=O)N[C@@H]([C@@H](C)CC)C(=O)N(C)CC(=O)N(C)[C@H]3CCCCCN(C3=O)[C@@H](Cc3ccc(C(F)(F)F)cc3)C(=O)N(C)CC(=O)N[C@@H](CCc3cc(F)c(C(F)(F)F)c(F)c3)C(=O)N2C1 [PP0633] | B (a compound having 3 or more and less than 10 is denoted as B) | B (a compound having 3 or more and less than 10 is denoted as B) | 2300 |  |  |  |  |  |
| CCO[C@@H]1C[C@H]2C(=O)NC3(CCC3)C(=O)N(C)[C@@H](C3CCCC3)C(=O)N(C)[C@H](C(=O)N(C)C)CC(=O)N(C)[C@@H](CC)C(=O)N[C@@H]([C@@H](C)CC)C(=O)N3C[C@H](OCC)C[C@H]3C(=O)N(C)[C@H]3C/C=C\CCN(C3=O)[C@@H](Cc3ccc(C(F)(F)F)cc3)C(=O)N(C)CC(=O)N[C@@H](CCc3cc(F)c(C(F)(F)F)c(F)c3)C(=O)N2C1 [PP1057] |  |  |  | B (a compound having 3 or more and less than 10 is denoted as B) | A (a compound having 10 or more and less than 20 is denoted as A) | 310 |  |  |
| CCO[C@@H]1C[C@H]2C(=O)NC3(CCC3)C(=O)N(C)[C@@H](C3CCCC3)C(=O)N(C)[C@H](C(=O)N(C)C)CC(=O)N(C)[C@@H](COC)C(=O)N[C@@H]([C@@H](C)CC)C(=O)N3CC[C@H]3C(=O)N(C)[C@H]3CCCCCN(C3=O)[C@@H](Cc3ccc(C(F)(F)F)cc3)C(=O)N(C)CC(=O)N[C@@H](CCc3cc(F)c(C(F)(F)F)c(F)c3)C(=O)N2C1 [PP0864] |  |  |  | B (a compound having 3 or more and less than 10 is denoted as B) | B (a compound having 3 or more and less than 10 is denoted as B) | 490 |  |  |
| CCCN1C(=O)[C@H](C2CCCC2)N(C)C(=O)C2(CCC2)NC(=O)[C@@H]2C[C@@H](OCC)CN2C(=O)[C@H](CCc2cc(F)c(C(F)(F)F)c(F)c2)NC(=O)CN(C)C(=O)[C@H](Cc2ccc(C(F)(F)F)cc2)N2CCCC[C@@H](C2=O)N(C)C(=O)CN(C)C(=O)[C@H]([C@@H](C)CC)NC(=O)[C@H](CC(C)C)N(C)C(=O)C[C@H]1C(=O)N1CCOCC1 [PP0649] | B (a compound having 3 or more and less than 10 is denoted as B) | C (A compound having a KD ratio of 0.1 or more and less than 3 is denoted as C) | 750 |  |  |  |  |  |
| C=CCN1CC(=O)N(C)[C@H]2C/C=C\CCN(C2=O)[C@@H](Cc2ccc(C)cc2)C(=O)N(C)CC(=O)N[C@@H](CCc2cc(F)c(C(F)(F)F)c(F)c2)C(=O)N2C[C@H](OCC)C[C@H]2C(=O)NC2(CC(C)(C)C2)C(=O)N(C)[C@@H](C2CCCC2)C(=O)N(C)[C@H](C(=O)N(C)C)CC(=O)N(C)[C@@H](CC(C)C)C(=O)N[C@@H]([C@@H](C)CC)C1=O [PP2050] |  |  |  | A (a compound having 10 or more and less than 20 is denoted as A) | A (a compound having 10 or more and less than 20 is denoted as A) | 190 |  |  |
| CC[C@H](C)[C@@H]1NC(=O)[C@H](COC)N(C)C(=O)C[C@@H](C(=O)N2CCOCC2)N(C)C(=O)[C@H](C2CCCC2)N(C)C(=O)C2(CCC2)NC(=O)[C@@H]2CC(F)(F)CN2C(=O)[C@H](CCc2cc(F)c(C(F)(F)F)c(F)c2)NC(=O)CN(C)C(=O)[C@H](Cc2ccc(C(F)(F)F)cc2)N2CCCCC[C@@H](C2=O)N(C)C(=O)[C@@H]2CCN2C1=O [PP0866] |  |  |  | B (a compound having 3 or more and less than 10 is denoted as B) | B (a compound having 3 or more and less than 10 is denoted as B) | 530 |  |  |
| CC[C@H](C)[C@@H]1NC(=O)[C@H](COC)N(C)C(=O)C[C@@H](C(=O)N2CCOCC2)N(C)C(=O)[C@H](C2CCCC2)N(C)C(=O)C2(CCCC2)NC(=O)[C@@H]2CC(F)(F)CN2C(=O)[C@H](CCc2cc(F)c(C(F)(F)F)c(F)c2)NC(=O)CN(C)C(=O)[C@H](Cc2ccc(C(F)(F)F)cc2)N2CCCCC[C@@H](C2=O)N(C)C(=O)CN(C)C1=O [PP0846] |  |  |  | B (a compound having 3 or more and less than 10 is denoted as B) | B (a compound having 3 or more and less than 10 is denoted as B) | 990 |  |  |
| CCCN1C(=O)CN(C)C(=O)CN(C)C(=O)[C@H]([C@@H](C)CC)NC(=O)[C@H](CC(C)C)N(C)C(=O)C[C@@H](C(=O)N(C)C)N(C)C(=O)[C@H](C2CCCC2)N(C)C(=O)[C@](C)(C2CC2)NC(=O)[C@@H]2CCCN2C(=O)[C@H](CCc2cc(F)c(C(F)(F)F)c(F)c2)NC(=O)CN(C)C(=O)[C@@H]1Cc1ccc(C(F)(F)F)cc1 [PP0734] ([NMeL]I[Sar][Sar][NPrPhe(4-CF3)][Sar][hPhe(3,5-F2-4-CF3)]P[X8][NMeGly(cPent)][NMeD]-NMe2; lactam N-11) | C (A compound having a KD ratio of 0.1 or more and less than 3 is denoted as C) | B (a compound having 3 or more and less than 10 is denoted as B) | 380 |  |  |  |  |  |
| CC[C@H](C)[C@@H]1NC(=O)[C@H](COC)N(C)C(=O)C[C@@H](C(=O)N(C)C)N(C)C(=O)[C@H](C2CCCC2)N(C)C(=O)C2(CC(C)(C)C2)NC(=O)[C@@H]2CCCCN2C(=O)[C@H](CCc2cc(F)c(C(F)(F)F)c(F)c2)NC(=O)CN(C)C(=O)[C@H](Cc2ccc(C(F)(F)F)cc2)N2CC/C=C\C[C@@H](C2=O)N(C)C(=O)CN(C)C1=O [PP2907] |  |  | 230 |  |  |  | A (a compound having 10 or more and less than 20 is denoted as A) | AA (a compound having 20 or more is denoted as AA) |
| CCCN1C(=O)[C@@H]2CCN2C(=O)CN(C)C(=O)[C@H]([C@@H](C)CC)NC(=O)[C@H](CC(C)C)N(C)C(=O)C[C@@H](C(=O)N(C)C)NC(=O)[C@H](C2CCCC2)N(C)C(=O)C2(CCC2)NC(=O)[C@@H]2C[C@@H](OCC)CN2C(=O)[C@H](CCc2ccc(C(F)(F)F)c(Cl)c2)NC(=O)CN(C)C(=O)[C@@H]1Cc1ccc(C(F)(F)F)cc1 [PP0390] ([NMeL]I[Sar][Aze][NPrPhe(4-CF3)][Sar][hPhe(3-Cl-4-CF3)][Hyp](Et)[Ac4c][NMeGly(cPent)]D-NMe2; lactam N-11) |  |  | 200 | B (a compound having 3 or more and less than 10 is denoted as B) | C (A compound having a KD ratio of 0.1 or more and less than 3 is denoted as C) |  |  |  |
| CCCN1C(=O)CN(C)C(=O)CN(C)C(=O)[C@H](C2CC(F)(F)C2)NC(=O)[C@H](CC(C)C)N(C)C(=O)C[C@@H](C(=O)N(C)C)N(C)C(=O)[C@H](C2CCCC2)N(C)C(=O)C2(CCCC2)NC(=O)[C@@H]2CCCN2C(=O)[C@H](CCc2cc(F)c(C(F)(F)F)c(F)c2)NC(=O)CN(C)C(=O)[C@@H]1Cc1ccc(C(F)(F)F)cc1 [PP0748] ([NMeL][X13][Sar][Sar][NPrPhe(4-CF3)][Sar][hPhe(3,5-F2-4-CF3)]P[Ac5c][NMeGly(cPent)][NMeD]-NMe2; lactam N-11) | B (a compound having 3 or more and less than 10 is denoted as B) | B (a compound having 3 or more and less than 10 is denoted as B) | 80 |  |  |  |  |  |
| CCCN1C(=O)[C@@H]2CCN2C(=O)CN(C)C(=O)[C@H]([C@@H](C)CC)NC(=O)[C@H](CC(C)C)N(C)C(=O)C[C@@H](C(=O)N2CCOCC2)NC(=O)[C@H](C2CCCC2)N(C)C(=O)C2(CCCC2)NC(=O)[C@@H]2C[C@@H](OCC)CN2C(=O)[C@H](CCc2ccc(C(F)(F)F)c(Cl)c2)NC(=O)CN(C)C(=O)[C@@H]1Cc1ccc(C(F)(F)F)cc1 [PP0353] ([NMeL]I[Sar][Aze][NPrPhe(4-CF3)][Sar][hPhe(3-Cl-4-CF3)][Hyp](Et)[Ac5c][NMeGly(cPent)]D-Morpholide; lactam N-11) |  |  | 470 | B (a compound having 3 or more and less than 10 is denoted as B) | C (A compound having a KD ratio of 0.1 or more and less than 3 is denoted as C) |  |  |  |
| CC[C@H](C)[C@@H]1NC(=O)[C@H](CC(C)C)N(C)C(=O)C[C@@H](C(=O)N2CCOCC2)N(C)C(=O)[C@H](C2CCCC2)N(C)C(=O)C2(CCOCC2)NC(=O)[C@@H]2CCCN2C(=O)[C@H](CCc2cc(F)c(C(F)(F)F)c(F)c2)NC(=O)CN(C)C(=O)[C@H](Cc2ccc(C(F)(F)F)cc2)N2CCCC[C@@H](C2=O)N(C)C(=O)CN(C)C1=O [PP0564] | B (a compound having 3 or more and less than 10 is denoted as B) | B (a compound having 3 or more and less than 10 is denoted as B) | 180 |  |  |  |  |  |
